Among the data in patent US8338608B2, “Inhibitors of ion channels” (Icagen Inc., priority 2005, dated 2012) are IC50 values, retold here.

For the first test, the target named is T1, hSCN3A (Homo sapiens, UniProt Q9NY46).
T1 construct: expressed in transfected cells
T1 sequence (Q9NY46 whole entry): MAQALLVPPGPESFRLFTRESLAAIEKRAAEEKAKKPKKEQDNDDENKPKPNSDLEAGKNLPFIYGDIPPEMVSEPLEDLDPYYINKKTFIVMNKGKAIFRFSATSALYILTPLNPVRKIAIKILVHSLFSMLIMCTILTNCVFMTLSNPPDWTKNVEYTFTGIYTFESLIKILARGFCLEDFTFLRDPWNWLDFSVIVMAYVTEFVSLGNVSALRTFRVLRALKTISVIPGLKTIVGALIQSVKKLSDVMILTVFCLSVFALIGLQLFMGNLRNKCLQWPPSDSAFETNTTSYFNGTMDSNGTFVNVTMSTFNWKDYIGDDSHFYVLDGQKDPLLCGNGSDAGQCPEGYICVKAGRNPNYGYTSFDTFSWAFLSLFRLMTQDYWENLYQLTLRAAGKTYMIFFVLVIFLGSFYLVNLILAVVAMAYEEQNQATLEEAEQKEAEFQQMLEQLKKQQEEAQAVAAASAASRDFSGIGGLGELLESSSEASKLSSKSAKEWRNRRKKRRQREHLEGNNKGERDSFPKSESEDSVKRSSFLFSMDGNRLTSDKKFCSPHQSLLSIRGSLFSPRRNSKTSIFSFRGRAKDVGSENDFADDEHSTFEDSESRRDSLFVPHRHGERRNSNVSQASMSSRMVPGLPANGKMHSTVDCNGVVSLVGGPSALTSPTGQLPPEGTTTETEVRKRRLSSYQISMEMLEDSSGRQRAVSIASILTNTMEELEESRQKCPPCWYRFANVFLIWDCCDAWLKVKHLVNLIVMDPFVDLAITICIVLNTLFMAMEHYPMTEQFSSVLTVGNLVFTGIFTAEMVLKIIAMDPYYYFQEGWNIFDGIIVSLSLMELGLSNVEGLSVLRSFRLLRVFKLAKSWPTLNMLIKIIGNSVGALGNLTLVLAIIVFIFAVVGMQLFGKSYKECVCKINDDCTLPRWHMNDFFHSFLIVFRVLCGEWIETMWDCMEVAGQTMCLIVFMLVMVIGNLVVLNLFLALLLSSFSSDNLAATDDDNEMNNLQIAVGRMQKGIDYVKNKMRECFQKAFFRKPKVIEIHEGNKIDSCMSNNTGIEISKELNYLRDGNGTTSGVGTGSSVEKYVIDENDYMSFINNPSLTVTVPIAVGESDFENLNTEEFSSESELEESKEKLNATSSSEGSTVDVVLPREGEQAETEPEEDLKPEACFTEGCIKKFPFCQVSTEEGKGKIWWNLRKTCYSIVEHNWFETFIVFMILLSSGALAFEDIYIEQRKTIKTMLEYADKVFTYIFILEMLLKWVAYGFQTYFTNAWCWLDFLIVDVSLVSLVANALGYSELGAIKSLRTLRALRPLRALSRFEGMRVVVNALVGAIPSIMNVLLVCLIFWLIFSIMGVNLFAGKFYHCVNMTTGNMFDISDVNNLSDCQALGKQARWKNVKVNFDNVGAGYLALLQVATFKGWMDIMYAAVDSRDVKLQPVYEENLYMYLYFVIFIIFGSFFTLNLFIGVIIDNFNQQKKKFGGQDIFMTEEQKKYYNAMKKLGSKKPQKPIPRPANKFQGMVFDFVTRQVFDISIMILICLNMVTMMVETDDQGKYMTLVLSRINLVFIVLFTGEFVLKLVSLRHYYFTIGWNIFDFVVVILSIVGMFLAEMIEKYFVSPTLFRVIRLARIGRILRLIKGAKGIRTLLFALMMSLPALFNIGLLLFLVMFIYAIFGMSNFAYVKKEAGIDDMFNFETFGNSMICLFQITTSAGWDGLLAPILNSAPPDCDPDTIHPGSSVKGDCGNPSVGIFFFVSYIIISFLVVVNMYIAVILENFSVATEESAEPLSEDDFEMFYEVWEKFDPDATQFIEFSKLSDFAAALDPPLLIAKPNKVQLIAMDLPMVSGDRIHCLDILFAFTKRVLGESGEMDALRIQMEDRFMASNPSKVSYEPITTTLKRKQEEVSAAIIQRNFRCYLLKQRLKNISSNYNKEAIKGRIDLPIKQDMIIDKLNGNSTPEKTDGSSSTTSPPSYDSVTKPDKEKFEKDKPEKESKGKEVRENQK
Nature of the test: SCN3A inhibitory activity in HEK cells stably expressing hSCN3A (whole-cell patch clamp / radiotracer efflux HTS). The format is cell-based.
Conditions: not given
For the compound `O=S(=O)(Nc1nccs1)c1ccc(S(=O)(=O)N2CC(COc3cccc(Cl)c3)C2)cc1` [Compound 36, 4-[3-(3-Chloro-phenoxymethyl)-azetidine-1-sulfonyl]-N-thiazol-2-yl-benzenesulfonamide], the IC50 lay in the range of 100 to 500 nM.

The test is the same for the next values; noted with them: HEK cells stably transfected with hSCN3A; read-out: SCN3A Inhibitory Activity.
`O=S(=O)(Nc1ccc(S(=O)(=O)Nc2nccs2)cc1)N[C@@H]1C[C@H]1c1ccccc1` (relative stereo) [Compound 4, N-(trans-2-phenylcyclopropyl)-N′-[4-(N-thiazol-2-yl-sulfonamyl)-phenyl]-sulfamide]: the IC50 is less than 100 nM.
On to `O=S(=O)(NCC(c1ccccc1)c1ccccc1)Nc1ccc(S(=O)(=O)Nc2nccs2)cc1` [Compound 1], for which the IC50 is less than 100 nM.
As to `O=S(=O)(NCCC(c1ccccc1)c1ccccc1)Nc1ccc(S(=O)(=O)Nc2nccs2)cc1` [Compound 2, N-(3,3-diphenylpropyl]-N′-[4-(N-thiazol-2-yl-sulfonamyl)-phenyl]-sulfamide], the IC50 was less than 100 nM.
Take `O=S(=O)(NCCc1ccc(Cl)c(Cl)c1)Nc1ccc(S(=O)(=O)Nc2nccs2)cc1` [Compound 3]: the IC50 is less than 100 nM.
For `O=S(=O)(NCCc1ccc(Oc2ccccc2)cc1)Nc1ccc(S(=O)(=O)Nc2nccs2)cc1` [Compound 5, N-[2-(4-phenoxyl-phenyl)-ethyl]-N′-[4-(N-thiazol-2-yl-sulfonamyl)-phenyl]-sulfamide], the IC50 is less than 100 nM.
For `CC(C)(C)c1ccc(OCCNS(=O)(=O)c2ccc(S(=O)(=O)Nc3ncc(Cl)s3)cc2)cc1` [Compound 6, Benzene-1,4-disulfonic acid 1-{[2-(4-tert-butyl-phenoxy)-ethyl]-amide} 4-[(5-chloro-thiazol-2-yl)-amide]], the IC50 is less than 100 nM.
Still for that read-out and setting: to `CC(C)(C)CCNS(=O)(=O)c1ccc(S(=O)(=O)Nc2ncc(Cl)s2)cc1` [Compound 7, Benzene-1,4-disulfonic acid 1-[(5-chloro-thiazol-2-yl)-amide] 4-[(3,3-dimethyl-butyl)-amide]] belongs less than 100 nM; to `O=S(=O)(Nc1nccs1)c1ccc(S(=O)(=O)N2CCC(Oc3cccc(Cl)c3)CC2)cc1` [Compound 8, 4-[4-(3-Chloro-phenoxy)-piperidine-1-sulfonyl]-N-thiazol-2-yl-benzenesulfonamide], less than 100 nM.
For the compound `O=S(=O)(NCC1COc2cc(Cl)c(Cl)cc2O1)c1ccc(S(=O)(=O)Nc2nccs2)cc1` (stereo not drawn) [Compound 9, Benzene-1,4-disulfonic acid 1-[(6,7-dichloro-2,3-dihydro-benzo[1,4]dioxin-2-ylmethyl)-amide] 4-thiazol-2-ylamide], the IC50 is less than 100 nM.
With `O=S(=O)(Nc1ncc(Cl)s1)c1ccc(S(=O)(=O)N2CCN(c3ccc(Cl)cc3F)CC2)cc1` [Compound 10, 4-[4-(4-Chloro-2-fluoro-phenyl)-piperazine-1-sulfonyl]-N-(5-chloro-thiazol-2-yl)-benzenesulfonamide], the IC50 was less than 100 nM.
With `CC(C)(C)c1ccc(CNS(=O)(=O)c2ccc(S(=O)(=O)Nc3nccs3)cc2)cc1` [Compound 11, Benzene-1,4-disulfonic acid 1-(4-tert-butyl-benzylamide) 4-thiazol-2-ylamide], the IC50 was less than 100 nM.
In the case of `O=S(=O)(NCCCOc1ccc(Cl)cc1)c1ccc(S(=O)(=O)Nc2ncc(Cl)s2)cc1` [Compound 12, Benzene-1,4-disulfonic acid 1-{[3-(4-chloro-phenoxy)-propyl]-amide} 4-[(5-chloro-thiazol-2-yl)-amide]], the IC50 was less than 100 nM.
Take `CN(CCNS(=O)(=O)c1ccc(S(=O)(=O)Nc2nccs2)cc1)c1ccc(Cl)cc1` [Compound 13, Benzene-1,4-disulfonic acid 1-({2-[(4-chloro-phenyl)-methyl-amino]-ethyl}-amide) 4-thiazol-2-ylamide]: the IC50 was less than 100 nM.
Regarding `CC(C)(CNS(=O)(=O)c1ccc(S(=O)(=O)Nc2ncc(Cl)s2)cc1)Oc1ccc(C(C)(C)C)cc1` [Compound 14, Benzene-1,4-disulfonic acid 1-{[2-(4-tert-butyl-phenoxy)-2-methyl-propyl]-amide} 4-[(5-chloro-thiazol-2-yl)-amide]], the IC50 was less than 100 nM.
For `O=S(=O)(NCc1ccc(C(F)(F)F)cc1)c1ccc(S(=O)(=O)Nc2ncc(Cl)s2)cc1` [Compound 15, Benzene-1,4-disulfonic acid 1-[(5-chloro-thiazol-2-yl)-amide] 4-(4-trifluoromethyl-benzylamide)], the IC50 was less than 100 nM.
In the case of `CC(C)(C)c1ccc(NCCNS(=O)(=O)c2ccc(S(=O)(=O)Nc3nccs3)cc2)cc1` [Compound 16, Benzene-1,4-disulfonic acid 1-{[2-(4-tert-butyl-phenylamino)-ethyl]-amide} 4-thiazol-2-ylamide], the IC50 was less than 100 nM.
With `O=S(=O)(NCC1(Oc2ccc(Cl)cc2)CCC1)c1ccc(S(=O)(=O)Nc2nccs2)cc1` [Compound 17, Benzene-1,4-disulfonic acid 1-{[1-(4-chloro-phenoxy)-cyclobutylmethyl]-amide} 4-thiazol-2-ylamide], the IC50 was less than 100 nM.
On to `Cc1cc(OCCNS(=O)(=O)c2ccc(S(=O)(=O)Nc3nccs3)cc2)ccc1Cl` [Compound 18, Benzene-1,4-disulfonic acid 1-{[2-(4-chloro-3-methyl-phenoxy)-ethyl]-amide} 4-thiazol-2-ylamide], for which the IC50 was less than 100 nM.
Consider `O=S(=O)(Nc1nccs1)c1ccc(S(=O)(=O)N2CCC[C@H]2COc2ccc(Cl)cc2)cc1` [Compound 19, 4-[(S)-2-(4-chloro-phenoxymethyl)-pyrrolidine-1-sulfonyl]-N-thiazol-2-yl-benzenesulfonamide], for which the IC50 was less than 100 nM.
On to `O=S(=O)(NCC1(Oc2ccc(Cl)cc2F)CCC1)c1ccc(S(=O)(=O)Nc2nccs2)cc1` [Compound 20, Benzene-1,4-disulfonic acid 1-{[1-(4-chloro-2-fluoro-phenoxy)-cyclobutylmethyl]-amide} 4-thiazol-2-ylamide], for which the IC50 was less than 100 nM.
Still for that read-out and setting: next, `O=S(=O)(NCC1(c2ccc(Cl)cc2)CCC1)c1ccc(S(=O)(=O)Nc2nccs2)cc1` [Compound 21, Benzene-1,4-disulfonic acid 1-{[1-(4-chloro-phenyl)-cyclobutylmethyl]-amide} 4-thiazol-2-ylamide]: less than 100 nM.
In the case of `O=S(=O)(NCCC(c1ccccc1)c1ccccc1)Nc1ccc(S(=O)(=O)Nc2nccs2)nc1` [Compound 22], the IC50 fell in the range of 100 to 500 nM.
On to `O=S(=O)(Nc1nccs1)c1ccc(NS(=O)(=O)N2CCN(c3ccc(Cl)c(Cl)c3)CC2)cc1` [Compound 23, 4-(3,4-Dichloro-phenyl)-piperazine-1-sulfonic acid [4-(thiazol-2-ylsulfamoyl)-phenyl]-amide], for which the IC50 was in the range of 100 to 500 nM.
On to `O=S(=O)(NCC(c1ccccc1)c1ccccc1)c1ccc(S(=O)(=O)Nc2nccs2)cc1` [Compound 24, Benzene-1,4-disulfonic acid 1-[(2,2-diphenyl-ethyl)-amide] 4-thiazol-2-ylamide], for which the IC50 lay within 100 to 500 nM.
Take `O=S(=O)(NCCc1ccc(Cl)c(Cl)c1)c1cc(F)c(S(=O)(=O)Nc2nccs2)cc1F` [Compound 25, 2,5-Difluoro-benzene-1,4-disulfonic acid 1-{[2-(3,4-dichloro-phenyl)-ethyl]-amide} 4-thiazol-2-ylamide]: the IC50 lay within 100 to 500 nM.
With `O=S(=O)(Nc1ncc(Cl)s1)c1ccc(S(=O)(=O)N2CC(Oc3ncc(C(F)(F)F)cc3Cl)C2)cc1` [Compound 26, N-(5-chloro-thiazol-2-yl)-4-[3-(3-chloro-5-trifluoromethyl-pyridin-2-yloxy)-azetidine-1-sulfonyl]-benzenesulfonamide], the IC50 fell in the range of 100 to 500 nM.
As for `O=S(=O)(NCCc1ccc(Cl)cc1)c1ccc(S(=O)(=O)Nc2nccs2)cc1` [Compound 27, Benzene-1,4-disulfonic acid 1-{[2-(4-chloro-phenyl)-ethyl]-amide} 4-thiazol-2-ylamide], the IC50 is 100 to 500 nM.
Take `O=S(=O)(Nc1ncc(Cl)s1)c1ccc(S(=O)(=O)N2CC(=Cc3ccc(Cl)c(Cl)c3)C2)cc1` [Compound 28, N-(5-chloro-thiazol-2-yl)-4-[3-(3,4-dichloro-benzylidene)-azetidine-1-sulfonyl]-benzenesulfonamide]: the IC50 lay within 100 to 500 nM.
As to `O=S(=O)(Nc1nccs1)c1ccc(S(=O)(=O)N2CCC(Cc3ccc(Cl)cc3)CC2)cc1` [Compound 29, 4-[4-(4-Chloro-benzyl)-piperidine-1-sulfonyl]-N-thiazol-2-yl-benzenesulfonamide], the IC50 was in the range of 100 to 500 nM.
As for `O=S(=O)(Nc1nccs1)c1ccc(S(=O)(=O)NC2CCCCCC2)cc1` [Compound 30, Benzene-1,4-disulfonic acid 1-cycloheptylamide 4-thiazol-2-ylamide], the IC50 is 100 to 500 nM.
The same measure, in the same setting: next, `CC(C)(CNS(=O)(=O)c1ccc(S(=O)(=O)Nc2nccs2)cc1)Nc1ccc(C(C)(C)C)cc1` [Compound 31, Benzene-1,4-disulfonic acid 1-{[2-(4-tert-butyl-phenylamino)-2-methyl-propyl]-amide} 4-thiazol-2-ylamide]: 100 to 500 nM.
On the same count and under the same terms, to `C[C@H](CNS(=O)(=O)c1ccc(S(=O)(=O)Nc2ncc(Cl)s2)cc1)Oc1ccc(Cl)cc1` [Compound 32, Benzene-1,4-disulfonic acid 1-{[(R)-2-(4-chloro-phenoxy)-propyl]-amide} 4-[(5-chloro-thiazol-2-yl)-amide]] belongs 100 to 500 nM; to `C[C@@H](CNS(=O)(=O)c1ccc(S(=O)(=O)Nc2ncc(Cl)s2)cc1)Oc1ccc(Cl)cc1` [Compound 33, Benzene-1,4-disulfonic acid 1-{[(S)-2-(4-chloro-phenoxy)-propyl]-amide} 4-[(5-chloro-thiazol-2-yl)-amide]], 100 to 500 nM.
On to `O=S(=O)(NCCOc1ccc(Cl)cc1F)c1ccc(S(=O)(=O)Nc2nccs2)cc1` [Compound 34, Benzene-1,4-disulfonic acid 1-{[2-(4-chloro-2-fluoro-phenoxy)-ethyl]-amide} 4-thiazol-2-ylamide], for which the IC50 fell in the range of 100 to 500 nM.
Still for that read-out and setting: to `CN(CCOc1ccc(C(C)(C)C)cc1)S(=O)(=O)c1ccc(S(=O)(=O)Nc2nccs2)cc1` [Compound 35, Benzene-1,4-disulfonic acid 1-{[2-(4-tert-butyl-phenoxy)-ethyl]-methyl-amide} 4-thiazol-2-ylamide] belongs 100 to 500 nM.
